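Briefly, cells in 96-well plates were exposed to five compound concentrations for 48 h, and endpoints were estimated by linear interpolation. TGI: total growth inhibition.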 Bounds are passed on as bounds.

The source of these data is PubChem BioAssay (NCI).

Holding throughout (test): NCI-60 cell line screen, 48 h
In assay [1] the test system is ACHN renal.
The subject of assay [2] is DU-145 prostate.
Assay [3] concerns LOX IMVI melanoma.
For assay [4], the system named is M14 melanoma.
The subject of assay [5] is NCI-H522 lung.
Assay [6] deals with SK-OV-3 ovarian.
Assay [7] concerns SNB-75 CNS.
Assay [8] concerns NCI-H226 lung.

For `COc1ccc2c(c1)/C(=C\c1c(Cl)nc3sc(C)cn13)C(=O)N2`, the TGI in assay [1] is 20.1 µM; in assay [2], 18.2 µM; in assay [3] it was 18.1 µM; in assay [4] it was 8.89 µM; in assay [5] it was 14.4 µM; in assay [6], 14.6 µM. The TGI in assay [7] is 17.1 µM.

Regarding `OCCc1ccsc1-c1sc(-c2cc(CCO)c(-c3sccc3CCO)s2)cc1CCO`, the TGI in assay [1] was 35.9 µM; in assay [2], 32.9 µM; in assay [3], 72.3 µM; in assay [4] it was 23.7 µM; in assay [5] it was 25.7 µM; in assay [6], 35.8 µM.

Regarding `CCOC(=O)c1ccc(NCC#CCN2CCOCC2)cc1`, the TGI in assay [1], in assay [2], in assay [3], in assay [4], in assay [8] and in assay [6] was above 100 µM each time.

For `COc1ccc(-c2nc(SCC(=O)N/N=C/c3ccc(N(C)C)cc3)[nH]c2-c2ccc(OC)cc2)cc1`, the TGI in assay [1], in assay [2], in assay [3], in assay [4], in assay [5] and in assay [6] was above 100 µM throughout. Also, in assay [7], the TGI is above 100 µM.

With `COc1cccc2c(=O)oc(-c3ccc(C(C)(C)C)cc3)nc12`, the TGI in assay [1] is above 100 µM; in assay [2], above 100 µM; in assay [3], 53.9 µM; in assay [4], above 100 µM; in assay [5] it was 89.6 µM; in assay [6], above 100 µM. In assay [7], this compound came in with a TGI above 100 µM.

Regarding `CCN(CC)CCn1c(=O)c2cccnc2n2c3c(=O)n(C)c(=O)n(C)c3nc12`, the TGI in assay [1], in assay [2], in assay [4], in assay [8], in assay [5] and in assay [6] was above 100 µM in each case. In assay [7], this compound displayed a TGI above 100 µM.

Turning to `CC1=NN(c2cccc(Cl)c2)C2(C1=C/C=C/c1ccccc1)C(Cl)C(=O)N2c1nc2ccccc2s1` (configuration not stated), the TGI was above 42.3 µM in assay [1]; above 38.2 µM in assay [2]; 57 µM in assay [3]; above 91.2 µM in assay [4]; above 100 µM in assay [8]; 47.4 µM in assay [5]. In assay [6], this compound registered a TGI above 95.1 µM.

Turning to `Cc1ccc(C(=C2Sc3ccccc3S2)C(=C2Sc3ccccc3S2)c2ccc(C)s2)s1`, the TGI in assay [1], in assay [2], in assay [4], in assay [8], in assay [5] and in assay [6] was above 100 µM each time. The compound further returned a TGI in assay [7] above 100 µM.

On to `CSC(=S)N(C)C`, for which the TGI in assay [2], in assay [3], in assay [4], in assay [8], in assay [5] and in assay [6] was above 100 µM throughout. This compound registered a TGI in assay [7] above 100 µM.

On to `COc1ccc(C2=N/C(=C\c3ccccc3)C(=O)O2)cc1`, for which the TGI in assay [1] was above 100 µM; in assay [4], above 100 µM; in assay [8], 98.1 µM; in assay [6], above 100 µM; in assay [7] it was above 100 µM.

`CCN(CC)CCN(C(=Nc1ccccc1)N1CCOCC1)c1ccccc1`: the TGI in assay [2], in assay [3], in assay [4], in assay [8], in assay [5] and in assay [6] was above 100 µM in each case. This compound gave a TGI in assay [7] above 100 µM.

As for `COP(=O)(/C=C/c1cc(C(=O)OCc2ccccc2)n(S(=O)(=O)c2ccccc2)c1)OC`, the TGI in assay [1], in assay [2], in assay [3], in assay [4], in assay [5] and in assay [6] was above 100 µM throughout. This compound also registered a TGI in assay [7] above 100 µM.

Take `NC1=NCC(CN2CCOCC2)O1` (configuration not stated): the TGI in assay [1], in assay [2], in assay [3], in assay [4], in assay [5] and in assay [6] was above 100 µM throughout. In assay [7], the TGI was above 100 µM.

On to `CCNC(=O)Cc1nc2c(N)ncnc2n1C1OC(CO)C(O)C1O` (configuration not stated), for which the TGI in assay [1], in assay [2], in assay [3], in assay [4], in assay [8] and in assay [5] was above 100 µM in each case. The same compound yielded a TGI in assay [6] above 100 µM.

In the case of `COc1ccc(NC(=O)CC(=O)N2N=C(N3c4ccccc4Sc4ccccc43)CC2c2ccccc2)cc1` (configuration not stated), the TGI in assay [1], in assay [2], in assay [4], in assay [8], in assay [5] and in assay [6] was above 100 µM throughout. The compound further returned a TGI in assay [7] above 100 µM.

As for `Cc1cc(C(=O)CCCCOc2ccc(C3=NCCO3)cc2)c(C)n1C`, the TGI is above 100 µM in assay [1]; 79.8 µM in assay [2]; above 100 µM in assay [4]; 98 µM in assay [8]; above 100 µM in assay [5]; above 100 µM in assay [6]. For the same compound, the TGI in assay [7] was above 100 µM.

For the compound `CN(C)C1(N(C)C)Oc2c(c(=O)n(C)c(=O)n2C)C(c2ccc(Br)cc2)C1(F)F` (configuration not stated), the TGI in assay [1], in assay [2], in assay [3], in assay [4], in assay [8] and in assay [6] was above 100 µM throughout. The TGI in assay [7] was above 100 µM.

On to `CC1(C)C2CCC1(C)[C@H](n1c(=O)n([C@@H]3CC4CCC3(C)C4(C)C)c(=O)n([C@@H]3CC4CCC3(C)C4(C)C)c1=O)C2`, for which the TGI is above 100 µM in assay [1]; above 100 µM in assay [2]; above 100 µM in assay [3]; above 100 µM in assay [4]; 76.4 µM in assay [8]; above 100 µM in assay [5]. Also, the TGI in assay [7] came out at 46.5 µM.
